In patent US10448639B2, “Fungicidal pyrazoles” (FMC CORPORATION, priority 2009, dated 2019):

Columns and labels:
[1] = test system: Septoria tritici; assay: Test G: wheat leaf blotch, preventive spray on wheat seedlings, visual disease rating; settings: wheat leaf blotch, 100 = 100% disease control; for Test G rating (% disease control): preventive spray, 0 = no control; for Test G disease control rating: sprayed the day before inoculation, 0 = no disease control relative to controls
[2] = test system: Botrytis cinerea; assay: Test B: tomato Botrytis, preventive spray on tomato seedlings, visual disease rating; settings: tomato Botrytis, 100 = 100% disease control; for Test B rating (% disease control): preventive spray, 0 = no control; for Test B disease control rating: 0 = no disease control relative to controls
[3] = test system: Rhizoctonia solani; assay: Test E: turf brown patch, preventive spray on creeping bent grass (Agrostis sp.) seedlings, disease rating; type: in vivo; settings: 100 = 100% disease control; for Test E rating (% disease control): preventive spray, 0 = no control; for Test E disease control rating: 0 = no disease control relative to controls
Source text: A dash (-) indicates no test results.

[4] = test system: Alternaria solani; assay: Test C: tomato early blight, preventive spray on tomato seedlings, visual disease rating; settings: tomato early blight, 100 = 100% disease control; for Test C rating (% disease control): preventive spray, 0 = no control; for Test C disease control rating: 0 = no disease control relative to controls
Source text: General protocol for preparing test suspensions for Tests A-J: the test compounds were first dissolved in acetone in an amount equal to 3% of the final volume and then suspended at the desired concentration (in ppm) in acetone and purified water (50/50 mix by volume) containing 250 ppm of the surfactant Trem® 014 (polyhydric alcohol esters). The resulting test suspensions were then used in Tests A-J. Spraying a 200 ppm test suspension to the point of run-off on the test plants was the equivalent of a rate of 500 g/ha. Unless otherwise indicated, the rating values indicate a 200 ppm test suspension was used. (An asterisk “*” next to the rating value indicates a 40 ppm test suspension was used.)
The test suspension was sprayed to the point of run-off on tomato seedlings. The following day the seedlings were inoculated with a spore suspension of Alternaria solani (the causal agent of tomato early blight) and incubated in a saturated atmosphere at 27° C. for 48 h, and then moved to a growth chamber at 20° C. for 5 days, after which time visual disease ratings were made.

[5] = test system: Phytophthora infestans; type: in vivo; settings: tomato late blight, preventive spray; 100 = 100% disease control, 0 = no control
[6] = test system: Septoria nodorum; assay: Test F: Septoria glume blotch, preventive spray on wheat seedlings, visual disease rating; settings: Septoria glume blotch on wheat, 100 = 100% disease control; for Test F rating (% disease control): preventive spray, 0 = no control; for Test F disease control rating: 0 = no disease control relative to controls
[7] = test system: Erysiphe graminis f sp. tritici; assay: Test J: wheat powdery mildew, preventive spray on wheat seedlings, visual disease rating; settings: wheat powdery mildew, 100 = 100% disease control; for Test J rating (% disease control): preventive spray, 0 = no control; for Test J disease control rating: sprayed the day before inoculation, 0 = no disease control relative to controls
[8] = test system: Puccinia recondita f. sp. tritici; assay: Test I: wheat leaf rust, preventive spray on wheat seedlings, visual disease rating; settings: wheat leaf rust, 100 = 100% disease control; for Test I rating (% disease control): preventive spray, 0 = no control; for Test I disease control rating: sprayed the day before inoculation, 0 = no disease control relative to controls
[9] = test system: Puccinia recondita f. sp. tritici; assay: Test H: wheat leaf rust, curative spray on inoculated wheat seedlings, visual disease rating; settings: wheat leaf rust, sprayed after inoculation; 100 = 100% disease control, 0 = no disease control relative to controls

| Structure (SMILES) | Test G rating (% disease control) [1] [%] | Test B rating (% disease control) [2] [%] | Test E rating (% disease control) [3] [%] | Test C rating (% disease control) [4] [%] | Test D rating (% disease control) [5] [%] | Test F rating (% disease control) [6] [%] | Test J rating (% disease control) [7] [%] | Test I rating (% disease control) [8] [%] | Test G disease control rating [1] [%] | Test B disease control rating [2] [%] | Test E disease control rating [3] [%] | Test C disease control rating [4] [%] | Test F disease control rating [6] [%] | Test J disease control rating [7] [%] | Test I disease control rating [8] [%] | Test H disease control rating [9] [%] |
| --- | --- | --- | --- | --- | --- | --- | --- | --- | --- | --- | --- | --- | --- | --- | --- | --- |
| Cc1nn(C)c(Nc2cc(F)cc(F)c2)c1-c1ccc(F)cc1Cl [compound 9] | 100 | 99 | 55 | 0 | 0 | 0 | 97 | 98 | – | – | – | – | – | – | – | – |
| Cc1nn(C)c(Nc2cc(F)cc(F)c2F)c1-c1ccc(Cl)cc1 [compound 10] | 0 | 47 | 0 | 0 | 0 | 0 | 0 | 0 | – | – | – | – | – | – | – | – |
| Cc1nn(C)c(Nc2ccc(F)cc2)c1-c1ccc(F)cc1Cl [compound 11] | 100 | 99 | 99 | 99 | 0 | 0 | 100 | 99 | – | – | – | – | – | – | – | – |
| Cc1nn(C)c(Nc2ccccc2F)c1-c1ccc(F)cc1Cl [compound 12] | 100 | 99 | 99 | 93 | 0 | 0 | 100 | 99 | – | – | – | – | – | – | – | – |
| Cc1nn(C)c(N(c2c(F)cc(F)cc2F)S(C)(=O)=O)c1-c1ccc(F)cc1Cl [compound 304] | – | – | – | – | – | – | – | – | 16 | 0 | 0 | 0 | 0 | 0 | 0 | – |
| COCN(c1c(F)cc(F)cc1F)c1c(-c2ccc(F)cc2Cl)c(C)nn1C [compound 309] | – | – | – | – | – | – | – | – | 100 | 97 | 92 | 61 | 60 | 99 | 0 | – |
| Cc1nn(C)c(Nc2ccc(F)cc2Cl)c1-c1ccc(C#N)cc1Cl [compound 338] | – | – | – | – | – | – | – | – | 100 | 100 | – | 37 | 40 | 99 | 100 | 8 |
| Cc1nn(C)c(Nc2ccc(F)cc2F)c1-c1c(Cl)cccc1Cl [compound 339] | – | – | – | – | – | – | – | – | 100 | 100 | – | 0 | 0 | 100 | 98 | 0 |
| Cc1nn(C)c(Nc2ccc(F)cc2Br)c1-c1c(Cl)cccc1Cl [compound 340] | – | – | – | – | – | – | – | – | 100 | 99 | – | 0 | 0 | 100 | 91 | 0 |
| Cc1nn(C)c(Nc2c(Cl)cc(F)cc2Cl)c1-c1c(Cl)cccc1Cl [compound 341] | – | – | – | – | – | – | – | – | 99 | 99 | – | 0 | 0 | 93 | 99 | 0 |
| Cc1nn(C)c(Oc2ccc(C#N)cc2F)c1-c1c(F)cccc1Cl [compound 342] | – | – | – | – | – | – | – | – | 100 | 100 | – | 33 | 99 | 100 | 100 | 0 |
| Cc1nn(C)c(Nc2ccc([N+](=O)[O-])cc2F)c1-c1ccc(F)cc1Cl [compound 344] | – | – | – | – | – | – | – | – | 100 | 100 | – | 40 | 87 | 100 | 100 | 62 |
| Cc1nn(C)c(Nc2cc([N+](=O)[O-])ccc2F)c1-c1ccc(F)cc1Cl [compound 345] | – | – | – | – | – | – | – | – | 67 | 0 | – | 0 | 0 | 0 | 9 | 0 |
| Cc1nn(C)c(Nc2c(Cl)cc(F)cc2Br)c1-c1ccc(F)cc1F [compound 348] | – | – | – | – | – | – | – | – | 100 | 100 | – | 80 | 94 | 100 | 100 | 19 |
| Cc1nn(C)c(Nc2c(F)cccc2F)c1-c1ccc(Cl)cc1Cl [compound 353] | – | – | – | – | – | – | – | – | 99 | 97 | – | 17 | 0 | 99 | 99 | 3 |
| Cc1nn(C)c(Nc2ccc(F)cc2Cl)c1-c1ccc(Cl)cc1Cl [compound 354] | – | – | – | – | – | – | – | – | 100 | 99 | – | 0 | 0 | 100 | 98 | 82 |
| COc1ccc(Nc2c(-c3ccc(Cl)cc3Cl)c(C)nn2C)cc1 [compound 355] | – | – | – | – | – | – | – | – | 100 | 99 | – | 0 | 0 | 0 | 91 | 3 |
| Cc1nn(C)c(Oc2ccc(C#N)cc2Cl)c1-c1ccc(Cl)cc1Cl [compound 362] | – | – | – | – | – | – | – | – | 100 | 100 | – | 0 | 0 | 96 | 96 | 0 |
| Cc1nn(C)c(Nc2c(Cl)cc(F)cc2Cl)c1-c1ccc(Cl)cc1Cl [compound 363] | – | – | – | – | – | – | – | – | 99 | 65 | – | 0 | 0 | 43 | 96 | 0 |
| Cc1nn(C)c(Nc2ccc(Br)cc2F)c1-c1ccc(F)cc1Cl [compound 366] | – | – | – | – | – | – | – | – | 100 | 100 | – | 58 | 0 | 100 | 99 | 9 |
